Reference: patent US20130065847A1, “ENDOPARASITICIDAL COMPOSITIONS” (priority 2010, published 2013)

Test system: Cooperia Curticei
Assay: In-vivo test on Cooperia curticei on sheep using peroral application
Details: Monepantel 0.625 mg/kg, Abamectin 0.05 mg/kg; for Efficacy [%]: 100×(C−T)/C of worm count means vs untreated control, days 14-17; for Efficacy [%] / log [Worm count] [geometric mean value] / Reduction worm count [factor] / Reduction log [worm count]: L4 stage, oral, combination 0.625 & 0.05 mg/kg; for Worm count [Geometric mean value]: experimentally induced infection, treated at L4 stage, single oral application, combination 0.625 & 0.05 mg/kg bodyweight, slaughter days 14-17 after treatment, untreated control 4266; for log [Worm count] [geometric mean value]: log transformed worm counts, untreated control 3.631; for Reduction worm count [factor]: observed; for Reduction worm count [factor] / Reduction log [worm count]: vs untreated control
Excerpt: In-Vivo Test on Cooperia Curticei on Sheep Using Peroral Application
The study concerned a blinded parallel-group efficacy study against the L4 stage of the subject nematodes. The experimental induced worm burdens of monepantel/abamectin combination treated animals were compared to those of an untreated control group and sheep treated animals with either monepantel or abamectin mono-formulations.
To this end the required larvae were generated first of all through culturing of characterized field isolates. Each animal then received the same dose of L3 (infective) larvae, and their larvae burdens were allowed time to mature. Once the larvae reached the L4 stage, the sheep were allocated to treatment groups 1, 2, 3 and 4 and treated as defined in the Table below:
Oral application using the above described formulations: […]
Two weeks after treatment (days 14-17) the sheep were slaughtered, their gastro-intestinal tracts recovered and processed for enumeration of total worm burdens. The primary measure of efficacy was calculated from the mean worm reduction in groups 2-4 when compared to the untreated control group 1. Efficacies were calculated using the formula
wherein C and T are the worm count means of the Control and Treated groups, respectively.
To this end, worm counts were log transformed as follows: […]

Compound	Efficacy [%]	Worm count [Geometric mean value]	log [Worm count] [geometric mean value]	Reduction worm count [factor]	Reduction log [worm count]
C[C@](C#N)(COc1cc(C#N)ccc1C(F)(F)F)NC(=O)c1ccc(SC(F)(F)F)cc1 [Monepantel, N-((1S)-1-cyano-2-(5-cyano-2-trifluoro-methylphenoxy)-1-methylethyl)-4-trifluoromethylsulfanylbenzamide]	66.0	1453	3.165	~2.9	−0.466
abamectin	68.3	1352	3.134	~3.1	−0.497
